Experimental data from BindingDB's records for doi:10.1016/j.bmcl.2003.11.078 (Virginia Commonwealth University, 2004).

Assay: Binding affinity at imidazoline receptor I-1 of rat.

Structure (SMILES): Brc1cccc2c3c([nH]c12)CNCC3 [8-Bromo-2,3,4,9-tetrahydro-1H-beta-carboline]
- Ki: 3.74 µM
